Experimental data as given in ChEMBL document CHEMBL2163329, “Tuberculosis: the drug development pipeline at a glance” (Eur J Med Chem, 2012).
Values after ≈ are worked out from the molar mass of the structure shown.

Legend:
Assay type in all cases: functional
[1] = tested on: Mycobacterium tuberculosis; test: Antimycobacterial activity against quinolone-resistant, multidrug-resistant Mycobacterium tuberculosis
[2] = tested on: Mycobacterium tuberculosis; test: Antimycobacterial activity against drug-resistant Mycobacterium tuberculosis
[3] = tested on: Mycobacterium tuberculosis; test: Antimycobacterial activity against RIF-resistant Mycobacterium tuberculosis
[4] = tested on: Mycobacterium tuberculosis; test: Antimycobacterial activity against INH-resistant Mycobacterium tuberculosis
[5] = tested on: Mycobacterium tuberculosis; test: Antimycobacterial activity against EMB-resistant Mycobacterium tuberculosis

Row | Structure (SMILES) | MIC [2] | other results
1 | COc1c(N2CC3(CC3)[C@](C)(N)C2)c(F)cc2c(=O)c(C(=O)O)cn([C@@H]3C[C@@H]3F)c12 | – | MIC90 [1]: 0.5 µg/mL (≈ 1.19 µM)
2 | O=[N+]([O-])c1cn2c(n1)OC[C@@H](OCc1ccc(OC(F)(F)F)cc1)C2 [PRETOMANID] | 0.015 µg/mL (≈ 0.0418 µM) | –
3 | C[C@]1(COc2ccc(N3CCC(Oc4ccc(OC(F)(F)F)cc4)CC3)cc2)Cn2cc([N+](=O)[O-])nc2O1 | 0.006 µg/mL (≈ 0.0112 µM) | –
4 | COc1nc2ccc(Br)cc2cc1[C@@H](c1ccccc1)[C@@](O)(CCN(C)C)c1cccc2ccccc12 [BEDAQUILINE] | 0.003 µg/mL (≈ 0.0054 µM) | –
5 | CC(=O)NC[C@H]1CN(c2ccc(N3CCSCC3)c(F)c2)C(=O)O1 [SUTEZOLID] | 0.03 µg/mL (≈ 0.0849 µM) | –
6 | CC(C)=CCC/C(C)=C/CNCCNC1C2CC3CC(C2)CC1C3 (stereo not drawn) [SQ109] | – | MIC [3]: 0.7 µM (≈ 0.231 µg/mL); MIC [4]: 1.4 µM (≈ 0.463 µg/mL); MIC [5]: 0.9 µM (≈ 0.298 µg/mL)
